{
  "source": "patent US7910557B2",
  "about": "“Hair care product” (Maruzen Pharmaceuticals Co., Ltd., priority 2005, dated 2011)",
  "key": {"[1]": {"biological_target": "T1, testosterone 5α-reductase (Rattus norvegicus, UniProt P24008)", "T1 construct": "75 μl of S-9 (rat liver homogenate, Oriental Yeast Co., Ltd.); tissue Oriental Yeast Co., Ltd; host or cells: rat liver S-9 homogenate", "T1 sequence (P24008 1-259)": "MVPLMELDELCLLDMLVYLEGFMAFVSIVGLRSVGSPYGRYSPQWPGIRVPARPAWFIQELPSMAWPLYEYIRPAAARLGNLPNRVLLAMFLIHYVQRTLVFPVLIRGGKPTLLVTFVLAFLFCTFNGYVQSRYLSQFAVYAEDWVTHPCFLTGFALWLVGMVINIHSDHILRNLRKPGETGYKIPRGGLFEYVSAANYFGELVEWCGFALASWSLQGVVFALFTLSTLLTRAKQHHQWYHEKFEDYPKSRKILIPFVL", "assay": "Test for testosterone 5α-reductase inhibiting action (S-9 rat liver homogenate, GC quantification)", "assay_type": "biochemical"}, "[2]": {"tested_on": "Normal human head hair papilla cells", "assay": "Test for hair papilla cell growth promoting action (MTT assay)", "assay_type": "cell-based", "conditions": "for Hair papilla cell growth promotion rate (%): 4 days, control = 100", "protocol": "Normal human head hair papilla cells were cultured using a papilla cell growth medium (Cell Application Inc.) containing 2% fetal bovine serum (FBS) and proliferation additives, then the cells were retrieved by trypsinization. The retrieved cells were diluted to a cell concentration of 1.0×10^4 cells/ml using a DMEM medium containing 10% FBS, after which the cells were inoculated in a collagen-coated 96-well plate, at a rate of 200 μl per well, followed by incubation for 3 days. After incubation, the medium was removed and then to the wells there were added 200 μl each of a sample solution in which a respective sample had been dissolved in serum-free DMEM. The wells were then incubated for a further 4 days.\nOnce incubation was over, the medium was removed, and then to the wells there was added 100 μl each of MTT dissolved in serum-free DMEM (final concentration 0.4 mg/ml). After 2 hours of incubation, the blue formazan formed inside the cells was extracted with 100 μl of 2-propanol. The absorbance of the extracts was measured at a 570 nm wavelength. Turbidity was measured at the same time, as absorbance at the 650 nm wavelength. The amount of blue formazan formed was taken as the difference between the two absorbances. As a control, the same measurements were carried out for specimens in which serum-less DMEM was added instead of the sample solutions. The hair papilla cell growth promotion rate (%) was calculated from the obtained results using the formula below. Hair papilla cell growth promotion rate(%)=A/B×100\nIn the formula, A represents “absorbance upon sample addition”, and B represents “absorbance without sample addition”."}, "[3]": {"tested_on": "FGF-7 gene", "assay": "FGF-7 mRNA expression promotion in HFDPC (RT-PCR)", "assay_type": "cell-based, human", "conditions": "for mRNA expression promotion rate (%) FGF-7 mRNA: HFDPC, corrected by G3PDH, control = 100", "protocol": "(§1) The FGF-7 growth promoting action, VEGF growth promoting action and BMP-2 growth promoting action of the corosolic acid obtained in producing examples 1 and 2 (samples 1 and 2) were tested as follows.\n(§2) Human hair follicle dermal papilla cells (HFDPC) were cultured using a human hair follicle dermal papilla cells growth medium (PCGM), then the cells were retrieved by trypsinization. The retrieved cells were diluted to a cell concentration of 2×10^5 cells/ml using a DMEM medium containing 10% FBS, after which the cells were inoculated in 60 mm-diameter Petri dishes, at a rate of 5 ml, followed by incubation overnight.\n(§3) Once incubation was over, the cells were changed to a serum-less DMEM medium to which the samples (sample 1 and 2) had been added after two-hour incubation, then the cells were dissolved in 1 ml of a reagent for RNA extraction (TRIzol, Invitrogen Corporation). After addition of 200 μl of chloroform to the solutions, these were centrifuged (12000 rpm, 4° C., 15 minutes) and the top RNA layer was isolated. The RNA layer was concentrated in isopropanol. The total RNA concentrated and precipitated was dissolved in a TE solution (10 mM Tris-HCl/1 mM EDTA, pH 8.0), and was taken as a total RNA standard (sequence numbers 1 to 3) used in a template of quantitative RT-PCR for measuring the mRNA expression level of the FGF-7 gene, the VEGF gene and the BMP-2 gene. […]\n(§4) After synthesizing single-strand DNA from 500 ng of total RNA in a PCR apparatus (TaKaRa PCR Thermal Cycler MP, TAKARA BIO INC.), the FGF-7 gene (sequence no. 4), the VEGF gene (sequence no. 5), the BMP-2 gene (sequence no. 6), and the G3PDH gene as an internal standard were amplified by PCR reaction, from the single-strand DNA, using specific sense primers (sequence nos. 7 to 9) and antisense primers (sequence nos. 10 to 12) of the respective genes, then 10 μl of the amplified product were electrophoresed on 1.2% agarose gel. […] Then the RT-PCR products were quantitatively measured using KODAK 1D Image Analysis Software EDAS290 Version3.5. […]"}, "[4]": {"tested_on": "VEGF gene", "assay": "VEGF mRNA expression promotion in HFDPC (RT-PCR)", "assay_type": "cell-based, human", "conditions": "for mRNA expression promotion rate (%) VEGF mRNA: HFDPC, corrected by G3PDH, control = 100", "protocol": "as §1, §2, §3, §4"}, "[5]": {"tested_on": "BMP-2 gene", "assay": "BMP-2 mRNA expression promotion in HFDPC (RT-PCR)", "assay_type": "cell-based, human", "conditions": "for mRNA expression promotion rate (%) BMP-2 mRNA: HFDPC, corrected by G3PDH, control = 100", "protocol": "as §1, §2, §3, §4"}, "[6]": {"conditions": "sample concentration 0.06 μg/ml"}, "[7]": {"conditions": "sample concentration 0.25 μg/ml"}},
  "data": [
    {"smiles": "C[C@H]1[C@H](C)CC[C@]2(C(=O)O)CC[C@]3(C)C(=CC[C@@H]4[C@@]5(C)C[C@@H](O)[C@H](O)C(C)(C)[C@@H]5CC[C@]43C)[C@H]12", "note": "[Sample 1, corosolic acid]", "values": [
      {"measurement": "IC50", "setting": "[1]; S-9 rat liver homogenate, 37° C., 30 minutes, by interpolation, read-out: IC50 (sample concentration at which the inhibition rate of testosterone 5α-reductase is 50%) (converted)", "result": 1180, "unit": "µM"},
      {"measurement": "testosterone 5α-reductase inhibiting action (in words)", "setting": "[1]; conclusion from Table 1", "result": "excellent testosterone 5α-reductase inhibiting action"},
      {"measurement": "hair papilla cell growth promoting action (in words)", "setting": "[2]; conclusion from Table 2", "result": "hair papilla cell growth promoting action"},
      {"measurement": "Hair papilla cell growth promotion rate (%)", "setting": "[2]; sample concentration 1.56 μg/ml", "result": "111.5 ± 2.2", "unit": "%"},
      {"measurement": "Hair papilla cell growth promotion rate (%)", "setting": "[2]; sample concentration 6.25 μg/ml", "result": "106.1 ± 1.4", "unit": "%"},
      {"measurement": "promotion of mRNA expression of the FGF-7 gene (in words)", "setting": "[3]; conclusion from Table 3", "result": "promote the mRNA expression"},
      {"measurement": "mRNA expression promotion rate (%) FGF-7 mRNA", "setting": "[3]; [6]", "result": "122.9 ± 8.5", "unit": "%"},
      {"measurement": "mRNA expression promotion rate (%) FGF-7 mRNA", "setting": "[3]; [7]", "result": "124.8 ± 7.2", "unit": "%"},
      {"measurement": "promotion of mRNA expression of the VEGF gene (in words)", "setting": "[4]; conclusion from Table 3", "result": "promote the mRNA expression"},
      {"measurement": "mRNA expression promotion rate (%) VEGF mRNA", "setting": "[4]; [6]", "result": "121.8 ± 3.5", "unit": "%"},
      {"measurement": "mRNA expression promotion rate (%) VEGF mRNA", "setting": "[4]; [7]", "result": "106.7 ± 4.5", "unit": "%"},
      {"measurement": "promotion of mRNA expression of the BMP-2 gene (in words)", "setting": "[5]; conclusion from Table 3", "result": "promote the mRNA expression"},
      {"measurement": "mRNA expression promotion rate (%) BMP-2 mRNA", "setting": "[5]; [6]", "result": "105.3 ± 3.8", "unit": "%"},
      {"measurement": "mRNA expression promotion rate (%) BMP-2 mRNA", "setting": "[5]; [7]", "result": "135.3 ± 5.5", "unit": "%"}
    ]}
  ]
}
